Among the test systems are COLO 205 colon; HOP-92 NSCLC; HT29 colon; IGROV1 ovarian; MALME-3M melanoma; OVCAR-8 ovarian; SK-MEL-2 melanoma; U251 CNS; M14 melanoma; TK-10 renal.
Assay in all cases: NCI tumour cell line growth inhibition, 48 h

SMILES strings stand for the structures.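 All cell lines were grown in 96-well plates and treated with compound for 48 hours. GI50 = concentration required for 50% inhibition of growth. TGI denotes the concentration required for complete inhibition of growth.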 Bounds are passed on as bounds.

We go through 10 molecules from PubChem BioAssay (NCI).

`CCOC(=O)/C=C/c1c[nH]c(=O)[nH]c1=O`: the TGI in the assay with COLO 205 colon, with HOP-92 NSCLC, with HT29 colon, in the assay on IGROV1 ovarian, in the assay with MALME-3M melanoma and in the assay on OVCAR-8 ovarian was greater than 75 µM throughout. For the same molecule, the TGI in the assay with SK-MEL-2 melanoma and in the assay on U251 CNS was greater than 75 µM throughout.
`CCCCCCC(=O)c1ccc2ccccc2c1O`: the TGI with COLO 205 colon, in the assay on HOP-92 NSCLC, with HT29 colon, in the assay with IGROV1 ovarian, in the assay with M14 melanoma and in the assay with OVCAR-8 ovarian was greater than 100 µM throughout. Besides, the TGI in the assay on SK-MEL-2 melanoma is 67.5 µM; in the assay on TK-10 renal, greater than 100 µM; with U251 CNS it was greater than 100 µM.
Take `CC(=O)OCc1nnn2c1CCC2`: the TGI with HOP-92 NSCLC, in the assay with HT29 colon, with IGROV1 ovarian, in the assay on M14 melanoma, with MALME-3M melanoma and in the assay with OVCAR-8 ovarian was greater than 100 µM each time. Further, the TGI in the assay with SK-MEL-2 melanoma, with TK-10 renal and with U251 CNS was greater than 100 µM each time.
Take `C=CCOC1OC(CS(=O)(=O)O)C(OC(C)=O)C(OC(C)=O)C1OC(C)=O` (stereo not given): the TGI in the assay with COLO 205 colon, in the assay on HOP-92 NSCLC, in the assay on HT29 colon, in the assay on IGROV1 ovarian, in the assay with M14 melanoma and in the assay with MALME-3M melanoma was greater than 100 µM in each case. In addition, the TGI with OVCAR-8 ovarian, in the assay on SK-MEL-2 melanoma, in the assay on TK-10 renal and with U251 CNS was greater than 100 µM throughout.
On to `CCOC(=O)C1=C(C)N(C2OC(COC(C)=O)C(OC(C)=O)C(OC(C)=O)C2OC(C)=O)C(=O)NC1c1ccccc1` (stereo not given), for which the TGI in the assay with COLO 205 colon, with HT29 colon, in the assay on IGROV1 ovarian, in the assay with M14 melanoma, in the assay on MALME-3M melanoma and in the assay with OVCAR-8 ovarian was greater than 100 µM throughout. In addition, the TGI in the assay on SK-MEL-2 melanoma and in the assay with U251 CNS was greater than 100 µM each time.
With `COc1ccc(OCC(C)(C)O)cc1`, the TGI with COLO 205 colon, in the assay with HOP-92 NSCLC, in the assay with HT29 colon, with IGROV1 ovarian, in the assay with MALME-3M melanoma and in the assay on OVCAR-8 ovarian was greater than 100 µM each time. In addition, the TGI in the assay with SK-MEL-2 melanoma and with U251 CNS was greater than 100 µM in each case.
Regarding `c1ccc(N2N=C3N(c4ccccc4)C2N3c2ccccc2)cc1`, the TGI in the assay on COLO 205 colon is 49.1 µM; with HOP-92 NSCLC, 60.8 µM; in the assay with HT29 colon, greater than 100 µM; in the assay with IGROV1 ovarian, greater than 100 µM; with M14 melanoma, 47.6 µM; in the assay on MALME-3M melanoma it was 38.2 µM. Moreover, the TGI in the assay with OVCAR-8 ovarian was greater than 100 µM; in the assay with SK-MEL-2 melanoma, 73 µM; in the assay with TK-10 renal, greater than 100 µM; in the assay with U251 CNS, greater than 100 µM.
For the molecule `COc1ccc(-c2c3c(nc4[nH]c(=S)[nH]c(=S)c24)CCCC3)cc1OC`, the TGI with COLO 205 colon is greater than 100 µM; in the assay on HT29 colon, greater than 100 µM; in the assay on IGROV1 ovarian it was 76.2 µM; in the assay on M14 melanoma it was greater than 100 µM; in the assay with MALME-3M melanoma it was greater than 100 µM; with OVCAR-8 ovarian it was 74.6 µM. The results for the TGI in the assay on TK-10 renal and in the assay on U251 CNS were greater than 100 µM and 39.6 µM, respectively.
For `CCCCn1c(C)c2c(c1C)C(=O)N(CCN1CCN(c3ccccc3Cl)CC1)C2=O`, the TGI was greater than 100 µM with COLO 205 colon; 68.5 µM with HOP-92 NSCLC; 31 µM with HT29 colon; greater than 100 µM with IGROV1 ovarian; 51.5 µM in the assay on M14 melanoma; 50.2 µM in the assay on MALME-3M melanoma. For the same molecule, the TGI in the assay with OVCAR-8 ovarian is greater than 100 µM; with SK-MEL-2 melanoma it was 49 µM; with TK-10 renal it was greater than 100 µM; with U251 CNS, greater than 100 µM.
Consider `CCCCCCCCCC[N+](C)(C)C`, for which the GI50 in the assay with COLO 205 colon was 1280 nM; in the assay on HOP-92 NSCLC, 677 nM; in the assay with HT29 colon it was 505 nM; in the assay on IGROV1 ovarian, 1660 nM; in the assay on M14 melanoma, 1740 nM; with MALME-3M melanoma, 2250 nM. Further, the GI50 in the assay with OVCAR-8 ovarian is 1830 nM; with SK-MEL-2 melanoma, 2410 nM; in the assay on TK-10 renal, 1420 nM; with U251 CNS it was 1040 nM. The TGI was 2.59 µM in the assay with COLO 205 colon; 4.6 µM with HOP-92 NSCLC; 2.17 µM in the assay on HT29 colon; 3.2 µM in the assay with IGROV1 ovarian; 5.83 µM with M14 melanoma; 8.96 µM in the assay with MALME-3M melanoma. The TGI stood at 5.53 µM in the assay on OVCAR-8 ovarian, 6.61 µM in the assay on SK-MEL-2 melanoma, 3.27 µM with TK-10 renal and 2.29 µM in the assay with U251 CNS.
